PubChem BioAssay (NCI)
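Five compound concentrations were applied to cells in 96-well plates for 48 hours; endpoints were derived by simple linear interpolation of the resulting dose-response curve. TGI marks complete inhibition of growth.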

What was measured:
Assay in all cases: DTP human tumour cell line panel, 48 h
SNB-19 CNS = system: SNB-19 CNS
KM20L2 colon = system: KM20L2 colon
DMS 114 small cell lung = system: DMS 114 small cell lung
HCT-15 colon = system: HCT-15 colon
NCI-H522 lung = system: NCI-H522 lung
SF-539 CNS = system: SF-539 CNS
SN12C renal = system: SN12C renal
U251 CNS = system: U251 CNS
OVCAR-4 ovarian = system: OVCAR-4 ovarian
IGROV1 ovarian = system: IGROV1 ovarian
K-562 leukemia = system: K-562 leukemia

Row | SMILES | TGI (SNB-19 CNS) | TGI (KM20L2 colon) | TGI (DMS 114 small cell lung) | TGI (HCT-15 colon) | TGI (NCI-H522 lung) | TGI (SF-539 CNS) | TGI (SN12C renal) | TGI (U251 CNS) | TGI (OVCAR-4 ovarian) | TGI (IGROV1 ovarian) | TGI (K-562 leukemia)
1 | CN(C(=O)c1ccco1)C(=S)N1CCN(c2ccccc2)CC1 | > 100 µM | > 100 µM | > 100 µM | > 100 µM | > 100 µM | > 100 µM | > 100 µM | > 100 µM | > 100 µM | > 100 µM | > 100 µM
2 | O=C1C(=O)c2ccccc2C(O)=C1CCCc1ccc(Oc2ccccc2)cc1 | > 100 µM | 73.2 µM | 23.5 µM | 79.7 µM | 34.2 µM | 28 µM | > 100 µM | > 100 µM | > 100 µM | 84.3 µM | > 100 µM
